Starred links: 1 amine or outer side, 2 acyl side, 3 side chain; linkers in the order of their positions; H or OH if unused. Positions of bridges follow the written chain, without caps; N, C: chain ends. Non-standard residues stand in square brackets, D forms with d. Residues, ends and D or L forms follow the SMILES beside them. mXylylene = c1cc(C[*:1])cc(C[*:2])c1; dPhg = N[C@@H](C(=O)O)c1ccccc1; Phg = N[C@H](C(=O)O)c1ccccc1; Tle = CC(C)(C)[C@H](N)C(=O)O; Pra = C#CC[C@H](N)C(=O)O; Nva = CCC[C@H](N)C(=O)O
Each compound was assayed against C5 (Homo sapiens, UniProt P01031) (assay: Human hemolysis assay (RBC lysis assay using complete human sera)). Conditions: inhibition of lysis of antibody-sensitized sheep erythrocytes, complete human sera.
C5, sequence (P01031 19-1676): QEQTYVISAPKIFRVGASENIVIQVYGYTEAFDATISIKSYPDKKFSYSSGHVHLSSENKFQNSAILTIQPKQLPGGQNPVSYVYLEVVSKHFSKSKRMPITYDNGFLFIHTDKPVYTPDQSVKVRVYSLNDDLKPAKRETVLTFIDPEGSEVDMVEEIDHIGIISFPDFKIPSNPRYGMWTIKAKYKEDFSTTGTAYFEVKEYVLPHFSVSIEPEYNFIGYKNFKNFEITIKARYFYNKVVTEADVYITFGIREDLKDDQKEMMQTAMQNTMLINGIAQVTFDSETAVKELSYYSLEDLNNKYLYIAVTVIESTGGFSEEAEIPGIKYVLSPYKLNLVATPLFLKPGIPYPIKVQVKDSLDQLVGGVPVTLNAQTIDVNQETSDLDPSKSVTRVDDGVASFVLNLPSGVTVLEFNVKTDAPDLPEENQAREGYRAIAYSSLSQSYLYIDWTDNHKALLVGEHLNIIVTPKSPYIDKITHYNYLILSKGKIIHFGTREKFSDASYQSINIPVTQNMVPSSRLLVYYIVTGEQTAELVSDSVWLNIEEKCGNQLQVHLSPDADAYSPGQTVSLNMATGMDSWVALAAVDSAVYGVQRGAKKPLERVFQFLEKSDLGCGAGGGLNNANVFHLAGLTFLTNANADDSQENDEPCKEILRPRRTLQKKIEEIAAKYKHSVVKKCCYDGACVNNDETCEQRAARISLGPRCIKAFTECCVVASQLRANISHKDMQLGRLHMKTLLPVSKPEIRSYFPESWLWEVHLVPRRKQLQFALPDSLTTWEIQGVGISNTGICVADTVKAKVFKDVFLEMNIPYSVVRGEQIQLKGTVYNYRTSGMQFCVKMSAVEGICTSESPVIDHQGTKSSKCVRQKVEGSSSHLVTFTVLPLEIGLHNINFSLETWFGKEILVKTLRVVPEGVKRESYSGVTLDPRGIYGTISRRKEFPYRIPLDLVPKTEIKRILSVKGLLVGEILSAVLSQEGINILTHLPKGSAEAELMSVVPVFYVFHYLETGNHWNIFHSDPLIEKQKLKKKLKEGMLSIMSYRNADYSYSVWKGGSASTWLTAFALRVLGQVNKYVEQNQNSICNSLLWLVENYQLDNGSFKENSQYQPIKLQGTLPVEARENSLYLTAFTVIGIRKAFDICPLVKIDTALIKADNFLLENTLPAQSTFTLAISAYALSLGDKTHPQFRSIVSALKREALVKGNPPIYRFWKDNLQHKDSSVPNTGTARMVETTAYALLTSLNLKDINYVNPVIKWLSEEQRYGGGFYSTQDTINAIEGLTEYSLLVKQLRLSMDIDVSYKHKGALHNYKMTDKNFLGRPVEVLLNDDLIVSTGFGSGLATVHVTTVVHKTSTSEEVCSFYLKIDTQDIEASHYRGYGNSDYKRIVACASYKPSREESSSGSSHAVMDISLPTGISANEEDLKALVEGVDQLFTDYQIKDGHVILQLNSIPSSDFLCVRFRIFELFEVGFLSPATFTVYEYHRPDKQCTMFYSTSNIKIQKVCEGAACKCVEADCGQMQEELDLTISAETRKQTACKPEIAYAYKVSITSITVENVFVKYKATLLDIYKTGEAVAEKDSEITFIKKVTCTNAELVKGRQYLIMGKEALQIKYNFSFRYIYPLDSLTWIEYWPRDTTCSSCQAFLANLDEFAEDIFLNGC
Assay type: cell-based
Design: with complete human sera (Complement Technology, Tyler Tex.) and polypeptides; tissue Complement Technology, Tyler Tex; host or cells: complete human serum
Compound `CC(=O)N[C@H]1CSCc2cccc(c2)CSC[C@@H](C(=O)N[C@@H](CC(=O)O)C(=O)N[C@H](C(=O)N[C@@H](Cc2ccc(O)cc2)C(=O)N[C@@H](Cc2c[nH]c3ccccc23)C(=O)N[C@@H](CCC(=O)O)C(=O)N[C@@H](Cc2ccccc2)C(N)=O)C(C)(C)C)NC(=O)[C@H](Cc2ccccc2)NC(=O)[C@H](CCCNC(=N)N)NC(=O)[C@H](CCC(=O)O)NC(=O)[C@H](C(C)(C)C)NC1=O` [Compound R3139, [mXylyl(1,6)]Ac-C-Tbg-E-R-F-C-D-Tbg-Y-W-E-F-NH2] (Ac-C[Tle]ERFCD[Tle]YWEF-NH2; linker 1-6 via mXylylene) has an IC50 of 97.2 nM.
With `CC(=O)N[C@H]1CSCc2cccc(c2)CSC[C@@H](C(=O)N[C@@H](CC(=O)O)C(=O)N[C@H](C(=O)N[C@@H](Cc2ccc(O)cc2)C(=O)N[C@@H](Cc2c[nH]c3ccccc23)C(=O)N[C@@H](CCC(=O)O)C(=O)N[C@@H](Cc2ccc(O)cc2)C(=O)N2CCC[C@H]2C(N)=O)C(C)C)NC(=O)[C@H](Cc2ccccc2)NC(=O)[C@H](CCCNC(=N)N)NC(=O)[C@H](CCC(=O)O)NC(=O)[C@H](C(C)C)NC1=O` [Compound R3140, [mXv1v1(1,6)]Ac-C-V-E-R-F-C-D-V-Y-W-E-Y-P-NH2] the IC50 was 17.9 nM.
Compound `CC(=O)N[C@H]1CSCc2cccc(c2)CSC[C@@H](C(=O)N[C@@H](CC(=O)O)C(=O)N[C@H](C(=O)N[C@@H](Cc2ccc(O)cc2)C(=O)N[C@@H](Cc2c[nH]c3ccccc23)C(=O)N[C@@H](CCC(=O)O)C(=O)N[C@@H](Cc2ccccc2)C(=O)N2CCC[C@H]2C(N)=O)C(C)C)NC(=O)[C@H](Cc2ccccc2)NC(=O)[C@H](CCCNC(=N)N)NC(=O)[C@H](CCC(=O)O)NC(=O)[C@H](C(C)C)NC1=O` [Compound R3141, [mXylyl(1,6)]Ac-C-V-E-R-F-C-D-V-Y-W-E-F-P-NH2] (Ac-CVERFCDVYWEFP-NH2; linker 1-6 via mXylylene) has an IC50 of 24.5 nM.
`CC(=O)N[C@H]1CSCc2cccc(c2)CSC[C@@H](C(=O)N[C@@H](CC(=O)O)C(=O)N[C@H](C(=O)N[C@@H](Cc2ccc(O)cc2)C(=O)N[C@@H](Cc2c[nH]c3ccccc23)C(=O)N[C@@H](CCC(=O)O)C(=O)N[C@@H](Cc2ccc(O)cc2)C(=O)N2CCC[C@H]2C(N)=O)C(C)(C)C)NC(=O)[C@H](Cc2ccccc2)NC(=O)[C@H](CCCNC(=N)N)NC(=O)[C@H](CCC(=O)O)NC(=O)[C@H](C(C)C)NC1=O` [Compound R3143, [mXyly1(1,6)]Ac-C-V-E-R-F-C-D-Tbg-Y-W-E-Y-P-NH2] (Ac-CVERFCD[Tle]YWEYP-NH2; linker 1-6 via mXylylene) showed an IC50 of 18.6 nM.
In the case of `CC(=O)N[C@H]1CSCc2cccc(c2)CSC[C@@H](C(=O)N[C@@H](CC(=O)O)C(=O)N[C@H](C(=O)N[C@@H](Cc2ccc(O)cc2)C(=O)N[C@@H](Cc2c[nH]c3ccccc23)C(=O)N[C@@H](CCC(=O)O)C(=O)N[C@@H](Cc2ccccc2)C(N)=O)C(C)C)NC(=O)[C@H](Cc2ccccc2)NC(=O)[C@H](CCCNC(=N)N)NC(=O)[C@H](CCC(=O)O)NC(=O)[C@H](C(C)(C)C)NC1=O` [Compound R3146, [mXylyl(1,6)]Ac-C-Tbg-E-R-F-C-D-V-Y-W-E-F-NH2] (Ac-C[Tle]ERFCDVYWEF-NH2; linker 1-6 via mXylylene), the IC50 is reported as 107 nM.
`C#CC[C@H](NC(=O)[C@H](Cc1ccccc1)NC(=O)[C@H](CCC(=O)O)NC(=O)[C@H](Cc1c[nH]c2ccccc12)NC(=O)[C@H](Cc1ccc(O)cc1)NC(=O)[C@@H](NC(=O)[C@H](CC(=O)O)NC(=O)[C@@H]1CSCc2cccc(c2)CSC[C@H](NC(C)=O)C(=O)N[C@@H](C(C)C)C(=O)N[C@@H](CCC(=O)O)C(=O)N[C@@H](CCCNC(=N)N)C(=O)N[C@@H](Cc2ccccc2)C(=O)N1)C(C)C)C(N)=O` [Compound R3147, [mXylyl(1,6)]Ac-C-V-E-R-F-C-D-V-Y-W-E-F-Propargyl-Gly-NH2] (Ac-CVERFCDVYWEF[Pra]-NH2; linker 1-6 via mXylylene) gave an IC50 of 138 nM.
With `CCC[C@H](NC(=O)[C@@H](NC(=O)[C@@H]1CCCN1C(=O)[C@H](Cc1ccc(O)cc1)NC(=O)[C@H](CCC(=O)O)NC(=O)[C@H](Cc1c[nH]c2ccccc12)NC(=O)[C@H](Cc1ccc(O)cc1)NC(=O)[C@@H](NC(=O)[C@H](CC(=O)O)NC(=O)[C@@H]1CSCc2cccc(c2)CSC[C@H](NC(C)=O)C(=O)N[C@@H](C)C(=O)N[C@@H](CCC(=O)O)C(=O)N[C@@H](CCCNC(=N)N)C(=O)N[C@@H](Cc2ccccc2)C(=O)N1)C(C)(C)C)c1ccccc1)C(N)=O` [Compound R3148, [mXylyl(1,6)]Ac-C-A-E-R-F-C-D-Tbg-Y-W-E-Y-P-Phg-Nvl-NH2] (Ac-CAERFCD[Tle]YWEYP[Phg][Nva]-NH2; linker 1-6 via mXylylene) the IC50 was 8.5 nM.
`CCC[C@H](NC(=O)[C@H](NC(=O)[C@@H]1CCCN1C(=O)[C@H](Cc1ccc(O)cc1)NC(=O)[C@H](CCC(=O)O)NC(=O)[C@H](Cc1c[nH]c2ccccc12)NC(=O)[C@H](Cc1ccc(O)cc1)NC(=O)[C@@H](NC(=O)[C@H](CC(=O)O)NC(=O)[C@@H]1CSCc2cccc(c2)CSC[C@H](NC(C)=O)C(=O)N[C@@H](C)C(=O)N[C@@H](CCC(=O)O)C(=O)N[C@@H](CCCNC(=N)N)C(=O)N[C@@H](Cc2ccccc2)C(=O)N1)C(C)(C)C)c1ccccc1)C(N)=O` [Compound R3149, [mXylyl(1,6)]Ac-C-A-E-R-F-C-D-Tbg-Y-W-E-Y-P-(D-Phg)-Nvl-NH2] (Ac-CAERFCD[Tle]YWEYP[dPhg][Nva]-NH2; linker 1-6 via mXylylene) was tested, and the IC50 was 13.6 nM.
